# Where “and” joins values, the source holds several entries; their conditions need not be identical. Equal entries are not always repeated. Where two headings read alike, the source gives them in different places.
# Target: T1, IL-4 (Homo sapiens, UniProt P05112)
# T1 construct: purchased Acros Biosystems IL4-H4218; host or cells: HEK-293
# T1 sequence (P05112 25-153): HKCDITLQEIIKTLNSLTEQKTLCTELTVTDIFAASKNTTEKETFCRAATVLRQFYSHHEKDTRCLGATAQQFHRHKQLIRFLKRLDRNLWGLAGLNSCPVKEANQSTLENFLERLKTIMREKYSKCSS
# Test: HEK-Blue IL-4/IL-13 reporter assay, IL-4 inhibition
# Format: cell-based
# Conditions: for inhibition at 10 µM: HEK-Blue; for inhibition at 10 µM / % Inhibition: IL-4, HEK Blue IL-4/IL-13 reporter assay, 10 μM; for EC50: HEK Blue IL-4/IL-13 reporter assay, read-out: EC50
# Experimental: HEK-Blue IL-4/IL-13 Inhibition assay. HEK-Blue IL-4/IL-13 reporter cell lines were purchased from Invivogen and cultured in DMEM with 10% Heat Inactivated Fetal Bovine Serum (FBS), 100 U/ml-100 μg/ml Pen-Strep, 10 μg/ml blasticidin, 100 μg/ml Normocin and 100 μg/ml Zeocin. Cells were tested for secreted embryonic alkaline phosphatase (SEAP) production induced by IL-4 alone prior to small molecule screening.
# 22.5 μl of small molecule in DMEM 4% DMSO was added to 22.5 μl of 1 ng/ml IL-4 in DMEM in a non-binding 96-well reaction plate for 30 minutes at room temperature. The reaction plate was further incubated for 30-60 min at 37° C. HEK-Blue IL-4/IL-13 reporter cell line was used between passages 11-17. […] Measurements were done in triplicate. The plate was incubated for ˜22-24 hours at 37° C./5% CO2. Quanti-Blue dye was prepared as per the manufacturer's recommendation and 160 μl was dispensed in each well of a 96-well plate (avoid edges to avoid evaporation), 40 μl of cell supernatant was added to the same plate and incubated for 3 hours at 37° C./5% CO2. Optical density was then measured at 650 nm using Molecular Devices SpectraMax M5 Microplate reader. Data was analyzed and plotted using GraphPad Prism 9.2.0.
smiles,measurement,setting,value
"N#Cc1c(-c2ccc(O)c(O)c2)cc(C2CC2)nc1N [2A/55, 2-amino-6-cyclopropyl-4-(3,4-dihydroxyphenyl) nicotinonitrile]",inhibition at 10 µM,read-out: % Inhibition,2.47 ± 14.2%
"N#Cc1c(-c2ccc(O)c(O)c2)cc(C2CCC2)nc1N [3A/56, 2-amino-6-cyclobutyl-4-(3,4-dihydroxyphenyl) nicotinonitrile]",inhibition at 10 µM,read-out: % Inhibition,28.5 ± 12.1%
"N#Cc1c(-c2ccc(O)c(O)c2)cc(-c2cccc(F)c2)nc1N [Compound 1, 2-amino-4-(3A-dihydroxyphenyl)-6-(3-fluorophenyl)nicotinonitrile]",% Inhibition,,No inhibition
"N#Cc1c(-c2ccc(O)c(O)c2)cc(-c2ccccc2F)nc1N [Compound 2, 2-amino-4-(3A-dihydroxyphenyl)-6-(2-fluorophenyl)nicotinonitrile]",% Inhibition,,40.0 ± 5.87%
"N#CC1C(=N)N=C(c2ccc(Br)cc2)C=C1c1ccc(O)c(O)c1 (stereo not drawn) [Compound 3, 6-(4-bromophenyl)-4-(3,4-dihydroxyphenyl)-2-imino-2,3-dihydropyridine-3-carbonitrile]",% Inhibition,,63.3 ± 2.54% and 93.3 ± 2.54%
same,EC50,"dose response, IL-4 inhibition",1300 ± 390 nM
"N#Cc1c(-c2ccc(O)c(O)c2)cc(-c2ccc(O)cc2)[nH]c1=N [Compound 4, 4-(3,4-dihydroxyphenyl)-6-(4-hydroxyphenyl)-2-imino-1,2-dihydropyridine-3-carbonitrile]",% Inhibition,,81.2 ± 18.9%
same,inhibition at 10 µM,,> 80%
same,EC50,"dose response, IL-4 inhibition",1140 ± 380 nM
"Cc1ccc(-c2cc(-c3ccc(O)c(O)c3)c(C#N)c(=N)[nH]2)cc1 [Compound 5, 4-(3,4-dihydroxyphenyl)-2-imino-6-(p-tolyl)-1,2-dihydropyridine-3-carbonitrile]",% Inhibition,,62.7 ± 4.30% and 82.7 ± 4.30%
same,inhibition at 10 µM,,> 80%
same,EC50,"dose response, IL-4 inhibition",1290 ± 470 nM
"COc1ccc(C2=NC(=N)C(C#N)C(c3ccc(O)c(O)c3)=C2)cc1 (stereo not drawn) [Compound 6, 4-(3,4-dihydroxyphenyl)-2-imino-6-(4-methoxyphenyl)-2,3-dihydropyridine-3-carbonitrile]",% Inhibition,,51.7 ± 5.05%
same,EC50,"dose response, IL-4 inhibition",3020 ± 610 nM
"N#Cc1c(-c2ccc(O)c(O)c2)cc(-c2cccnc2)[nH]c1=N [Compound 7, 4-(3,4-dihydroxyphenyl)-6-imino-1,6-dihydro-[2,3′-bipyridine]-5-carbonitrile]",% Inhibition,,84.3 ± 1.11%
same,inhibition at 10 µM,read-out: % Inhibition,94.3%
same,EC50,"dose response, IL-4 inhibition",2020 ± 970 nM
"N#Cc1c(-c2ccc(O)c(O)c2)cc(-c2ccco2)nc1N [Compound 8, 2-amino-4-(3,4-dihydroxyphenyl)-6-(furan-2-yl)nicotinonitrile]",% Inhibition,,No inhibition
"N#CC1C(=N)N=C(c2cnccn2)C=C1c1ccc(O)c(O)c1 (stereo not drawn) [Compound 9, 4-(3,4-dihydroxyphenyl)-2-imino-6-(pyrazin-2-yl)-2,3-dihydropyridine-3-carbonitrile]",inhibition at 10 µM,read-out: % Inhibition,64.2 ± 13.4%
"N#Cc1c(-c2ccc(O)c(O)c2)cc(-c2ccc(-c3ccccc3)cc2)[nH]c1=N [Compound 10, 6-([1,1′-biphenyl]-4-yl)-4-(3,4-dihydroxyphenyl)-2-imino-1,2-dihydropyridine-3-carbonitrile]",inhibition at 10 µM,read-out: % Inhibition,4.73 ± 4.58%
"N#Cc1c(-c2ccc(O)c(O)c2)cc(-c2ccc3ccccc3c2)[nH]c1=N [Compound 11, 4-(3,4-dihydroxyphenyl)-2-imino-6-(naphthalen-2-yl)-1,2-dihydropyridine-3-carbonitrile]",inhibition at 10 µM,,54.7 ± 8.42%
"N#Cc1c(-c2ccc(O)c(O)c2)cc(C2CCCCC2)nc1N [Compound 12, 2-amino-6-cyclohexyl-4-(3,4-dihydroxyphenyl)nicotinonitrile]",% Inhibition,,48.4 ± 5.80%
same,inhibition at 10 µM,,49.4%
"Cc1cc(-c2ccc(O)c(O)c2)c(C#N)c(N)n1 [Compound 13, 2-amino-4-(3,4-dihydroxyphenyl)-6-methylnicotinonitrile]",inhibition at 10 µM,read-out: % Inhibition,70.2%
"N#Cc1c(-c2ccc(O)c(O)c2)cc(-c2ccc(-n3ccnc3)cc2)nc1N [Compound 16, 6-(4-(1H-imidazol-1-yl)phenyl)-2-amino-4-(3,4-dihydroxyphenyl)nicotinonitrile]",% Inhibition,,No inhibition
"CN(C)c1ccc(-c2cc(-c3ccc(O)c(O)c3)c(C#N)c(N)n2)cc1 [Compound 17, 2-amino-4-(3,4-dihydroxyphenyl)-6-(4-(dimethylamino)phenyl)nicotinonitrile]",inhibition at 10 µM,read-out: % Inhibition,22.9 ± 1.48%
Cc1ccc(N2CCCCC2)cc1 [Compound 18],inhibition at 10 µM,read-out: % Inhibition,88.2 ± 13.9%
"N#Cc1c(-c2ccc(O)c(O)c2)cc(-c2ccc(F)cc2)[nH]c1=O [Compound 19, 4-(3,4-dihydroxyphenyl)-6-(4-fluorophenyl)-2-oxo-1,2-dihydropyridine-3-carbonitrile]",inhibition at 10 µM,read-out: % Inhibition,71.2 ± 5.6%
"Cc1c(-c2ccc(F)cc2)[nH]c(=N)c(C#N)c1-c1ccc(O)c(O)c1 [Compound 20, 4-(3,4-dihydroxyphenyl)-6-(4-fluorophenyl)-2-imino-5-methyl-1,2-dihydropyridine-3-carbonitrile]",inhibition at 10 µM,read-out: % Inhibition,97.7%
same,potency compared with Nico-52 (in words),"dose response, IL-4 inhibition",less potency than Nico-52
same,EC50,"dose response, IL-4 inhibition",2690 ± 570 nM
"N#CC1C(=O)N=C(c2ccc(-c3ccccc3)cc2)C=C1c1ccc(O)c(O)c1 (stereo not drawn) [Compound 31, 6-([1,1′-biphenyl]-4-yl)-4-(3,4-dihydroxyphenyl)-2-oxo-2,3-dihydropyridine-3-carbonitrile]",inhibition at 10 µM,read-out: % Inhibition,68.7 ± 9.84%
"N#CC1C(=O)N=C(c2ccc(O)cc2)C=C1c1ccc(O)c(O)c1 (stereo not drawn) [Compound 32, 4-(3,4-dihydroxyphenyl)-6-(4-hydroxyphenyl)-2-oxo-2,3-dihydropyridine-3-carbonitrile]",inhibition at 10 µM,,94.1%
"N#Cc1c(-c2ccc(O)c(C(=O)O)c2)cc(-c2ccc(N)cc2)nc1N [Compound 33, 5-(2-amino-6-(4-aminophenyl)-3-cyanopyridin-4-yl)-2-hydroxybenzoic acid]",inhibition at 10 µM,,6.63%
"N#Cc1c(-c2ccc(Cl)c(Cl)c2)cc(-c2ccc(F)cc2)[nH]c1=O [Compound 34, 4-(3,4-dichlorophenyl)-6-(4-fluorophenyl)-2-oxo-1,2-dihydropyridine-3-carbonitrile]",inhibition at 10 µM,,44.2 ± 11.1%
"N#Cc1c(-c2ccccc2)cc(-c2ccc(F)cc2)[nH]c1=O [Compound 35, 6-(4-fluorophenyl)-2-oxo-4-phenyl-1,2-dihydropyridine-3-carbonitrile]",inhibition at 10 µM,read-out: % Inhibition,27.6 ± 25.1%
"Cc1ccc(-c2cc(-c3ccc(F)cc3)[nH]c(=O)c2C#N)o1 [Compound 37, 6(4-fluorophenyl)-4-(5-methylfuran-2-yl)-2-oxo-1,2-dihydropyridine-3-carbonitrile]",inhibition at 10 µM,read-out: % Inhibition,0.48 ± 17.1%
"N#Cc1c(-c2ccccc2O)cc(-c2ccc(F)cc2)nc1O [Compound 39, 6-(4-fluorophenyl)-2-hydroxy-4-(2-hydroxyphenyl)nicotinonitrile]",inhibition at 10 µM,,100%
same,EC50,"dose response, IL-4 inhibition",1750 nM
"N#Cc1c(-c2cccc(O)c2)cc(-c2ccc(F)cc2)[nH]c1=O [Compound 40, 6-(4-fluorophenyl)-4-(3-hydroxyphenyl)-2-oxo-1,2-dihydropyridine-3-carbonitrile]",inhibition at 10 µM,,64.3 ± 12.3%
"N#Cc1c(-c2ccc(O)cc2)cc(-c2ccc(F)cc2)[nH]c1=O [Compound 41, 6(4-fluorophenyl)-4-(4-hydroxyphenyl)-2-oxo-1,2-dihydropyridine-3-carbonitrile]",inhibition at 10 µM,,60.7 ± 10.3%
"COc1cc(-c2cc(-c3ccc(F)cc3)[nH]c(=O)c2C#N)ccc1O [Compound 42, 6(4-fluorophenyl)-4-(4-hydroxy-3-methoxyphenyl)-2-oxo-1,2-dihydropyridine-3-carbonitrile]",inhibition at 10 µM,,67.6 ± 4.88%
"N#Cc1c(-c2ccccc2)cc(-c2ccc(F)cc2)[nH]c1=N [Compound 43, 6-(4-fluorophenyl)-2-imino-4-phenyl-1,2-dihydropyridine-3-carbonitrile]",inhibition at 10 µM,read-out: % Inhibition,6.13 ± 9.13%
"Cc1ccc(-c2cc(-c3ccc(F)cc3)[nH]c(=N)c2C#N)o1 [Compound 44, 6-(4-fluorophenyl)-2-imino-4-(5-methylfuran-2-yl)-1,2-dihydropyridine-3-carbonitrile]",inhibition at 10 µM,read-out: % Inhibition,33.9 ± 21.4%
"Cc1ccc(-c2cc(-c3ccc(F)cc3)[nH]c(=N)c2C#N)s1 [Compound 45, 6-(4-fluorophenyl)-2-imino-4-(5-methylthiophen-2-yl)-1,2-dihydropyridine-3-carbonitrile]",inhibition at 10 µM,read-out: % Inhibition,37.5 ± 19.9%
"N#Cc1c(-c2ccccc2O)cc(-c2ccc(F)cc2)nc1N [Compound 47, 2-amino-6-(4-fluorophenyl)-4-(2-hydroxyphenyl)nicotinonitrile]",inhibition at 10 µM,read-out: % Inhibition,98.8 ± 1.54%
same,EC50,"dose response, IL-4 inhibition",3400 nM and 3450 nM
"COc1cc(-c2cc(-c3ccc(F)cc3)[nH]c(=N)c2C#N)ccc1O [Compound 48, 6-(4-fluorophenyl)-4-(4-hydroxy-3-methoxyphenyl)-2-imino-1,2-dihydropyridine-3-carbonitrile]",inhibition at 10 µM,,100 ± 0.49%
same,EC50,"dose response, IL-4 inhibition",8400 nM and 6400 nM
"COc1ccc(-c2cc(-c3ccc(F)cc3)[nH]c(=N)c2C#N)cc1O [Compound 49, 6-(4-fluorophenyl)-4-(3-hydroxy-4-methoxyphenyl)-2-imino-1,2-dihydropyridine-3-carbonitrile]",inhibition at 10 µM,,82.2 ± 7.2%
same,EC50,"dose response, IL-4 inhibition",4020 ± 1850 nM
